Laboratory results reported in patent US10100010B1, “4-methoxy pyrrole derivatives or salts thereof and pharmaceutical composition comprising the same” (Daewoong Pharmaceutical Co., Ltd., priority 2015, dated 2018).
Counter-ions that a name gives are not always drawn. Like-named read-outs stand apart in the source and are kept apart here.

Columns and labels:
5-HT2A = 5-HT2A (Homo sapiens, UniProt P28223); experiment: GPCR Calcium Flux assay (FLIPR tetra, Eurofins), 5-HT2A; assay type: cell-based; conditions: for inhibition at 10 µM: read-out: inhibition rate (%) 5-HT2A; for IC50: 8 concentrations 10 to 0.0006 uM, read-out: 50% inhibitory concentration (IC50) 5-HT2A
Experimental: In order to confirm whether the compounds prepared in the above Examples act as an agonist or antagonist against GPCR Target, Calcium Flux assay was performed in an assay plate in which the compounds prepared in the Examples, vehicle controls, and reference compounds were added, using a Fluorometric imaging plate reader (FLIPR tetra) equipment.
Calcium Flux assay was evaluated by entrusting the GPCR profiler assay in Safety panel assays with Eurofins. By using the Fluo-8AM calcium dye, excitation was measured at a wavelength in the range of 470 to 495 nm and Emission was measured at a wavelength in the range of 515-575 nm. GPCR Assay Buffer for Calcium Flux assay was prepared by adding 20 mM of HEPES and 2.5 mM of Probenecid to Hanks Balanced Salt Solution (HBSS) to have pH 7.4. The Compounds of Examples for evaluation of the GPCR were diluted with DMSO at a concentration of 10 mM to make a stock and then prepared by diluting in the GPCR Assay Buffer at the concentration equivalent to three times the final concentration. First, for the evaluation of GPCRs, the inhibitory activity of the compounds of the Examples was evaluated at a single concentration of 10 uM, and then the respective selected targets were four fold-diluted from 10 uM to the low side to calculate 50% inhibitory concentration (IC50), prepared at the total 8 concentrations of 10, 2.5, 0.62, 0.15, 0.04, 0.01, 0.0024, 0.0006 uM, and Calcium Flux assay for GPCR was conducted. In order to evaluate the agonist and antagonist, % inhibition rate against GPCR activity before and after treatment of the compounds and the inhibitory activity of the compounds of the Examples were determined.
As a result, when the efficacy of […] and acetylcholine of the compounds prepared in the Examples was 100%, the inhibition rate (%) at a single concentration of 10 uM was evaluated and shown in Table 8.

[1] = tested on: indomethacin-induced gastric damage in rats; experiment: Gastric damage inhibitory activity against indomethacin-induced gastric damage in rats; assay type: in vivo, Sprague Dawley (SD) rats; conditions: 2.0 mg/kg oral, 1 hour before indomethacin 80 mg/kg
Experimental: The inhibitory activity against the gastric damage of the compounds prepared in Examples 2 and 8 was measured using indomethacin model (Chiou., Et al., 2005, gastroenterology, 128, p 63-73). Male Sprague Dawley (SD) rats (body weight 180-220 g) was divided into 5 groups (n=10) and fasted for 24 hours with free access to water. Control group was orally administered with 5 mL/kg of 0.5% methyl cellulose (MC) aqueous solution, and the other groups were orally administered with test compounds suspended in 0.5% methyl cellulose (MC) aqueous solution at a dose of 2.0 mg/kg/5 ml. For comparison, the compound of Example 134 (Comparative Example 1) and the compound of Example 165 (Comparative Example 2) in International Patent Publication No. WO 2006/036024 were orally administered at a dose of 2.0 mg/kg/5 ml by suspending 0.5% methylcellulose (MC) aqueous solution, respectively. […] The incised stomach was placed on a fixture, fixed by a fixing pin while spreading out using a forcep and then the gastric damage area was measured. % Inhibitory activity of test compounds was calculated according to the following Equation 2, and the results are shown in Table 3. % Inhibitory activity of test compound=[1−(gastric damage area % of the group treated with test compounds)/(gastric damage area % of control group)]×100 [Equation 2]

[2] = molecular target: T1, proton pump (H+/K+-ATPase) (Sus scrofa, UniProt P19156); experiment: Inhibitory effects on proton pump (H+/K+-ATPase) activity, gastric vesicles, malachite green Pi detection; assay type: biochemical; conditions: hog gastric vesicles, 37° C. 40 minutes, pH 7.4
T1 construct: Gastric vesicles were prepared from a hog stomach; from tissue; host or cells: hog stomach (gastric vesicles, method of Rabon et al. 1988)
Experimental: The inhibitory effects on proton pump (H^+/K^+-ATPase) activity of the compounds prepared in Examples 2, 8 and 22 were measured as follows.
Gastric vesicles were prepared from a hog stomach in accordance with the known method (Edd C. Rabon et al., Preparation of Gastric H^+, K^+-ATPase., Methods in enzymology, vol. 157 Academic Press Inc., (1988), pp. 649-654). The protein contents of gastric vesicles thus prepared were quantitatively measured with Bicinchoninic Acid (BCA) kit (Thermo Co.).
80 ul of (a predetermined concentration of a test compound, 0.5% DMSO, 2.5 mM MgCl2, 12.5 mM KCl, 1.25 mM EDTA, 60 mM Tris-HCl, pH7.4) was added to each well of 96-well plate. 10 ul of the reaction solution containing gastric vesicles (60 mmol/l, Tris-HCl buffer solution, pH 7.4), and 10 ul of Tris buffer solution containing adenosine triphosphate (10 mM ATP, Tris-HCl buffer solution, pH 7.4) were added to each well and subjected to enzymatic reaction at 37° C. for 40 minutes. […] The amount of monophosphate (Pi) in the reaction solution was measured at 570 nm by using a microplate reader (FLUOstar Omega, BMG Co.). The inhibition rate (%) was measured from the activity value of the control group and the activity value of the test compound at various concentrations, and the concentration (IC50) that inhibits H^+/K^+-ATPase activity by 50% was calculated from each % inhibition value of the compounds using Logistic 4-parameter function of Sigmaplot8.0 program.

T1 sequence (P19156 2-1034 limits assumed): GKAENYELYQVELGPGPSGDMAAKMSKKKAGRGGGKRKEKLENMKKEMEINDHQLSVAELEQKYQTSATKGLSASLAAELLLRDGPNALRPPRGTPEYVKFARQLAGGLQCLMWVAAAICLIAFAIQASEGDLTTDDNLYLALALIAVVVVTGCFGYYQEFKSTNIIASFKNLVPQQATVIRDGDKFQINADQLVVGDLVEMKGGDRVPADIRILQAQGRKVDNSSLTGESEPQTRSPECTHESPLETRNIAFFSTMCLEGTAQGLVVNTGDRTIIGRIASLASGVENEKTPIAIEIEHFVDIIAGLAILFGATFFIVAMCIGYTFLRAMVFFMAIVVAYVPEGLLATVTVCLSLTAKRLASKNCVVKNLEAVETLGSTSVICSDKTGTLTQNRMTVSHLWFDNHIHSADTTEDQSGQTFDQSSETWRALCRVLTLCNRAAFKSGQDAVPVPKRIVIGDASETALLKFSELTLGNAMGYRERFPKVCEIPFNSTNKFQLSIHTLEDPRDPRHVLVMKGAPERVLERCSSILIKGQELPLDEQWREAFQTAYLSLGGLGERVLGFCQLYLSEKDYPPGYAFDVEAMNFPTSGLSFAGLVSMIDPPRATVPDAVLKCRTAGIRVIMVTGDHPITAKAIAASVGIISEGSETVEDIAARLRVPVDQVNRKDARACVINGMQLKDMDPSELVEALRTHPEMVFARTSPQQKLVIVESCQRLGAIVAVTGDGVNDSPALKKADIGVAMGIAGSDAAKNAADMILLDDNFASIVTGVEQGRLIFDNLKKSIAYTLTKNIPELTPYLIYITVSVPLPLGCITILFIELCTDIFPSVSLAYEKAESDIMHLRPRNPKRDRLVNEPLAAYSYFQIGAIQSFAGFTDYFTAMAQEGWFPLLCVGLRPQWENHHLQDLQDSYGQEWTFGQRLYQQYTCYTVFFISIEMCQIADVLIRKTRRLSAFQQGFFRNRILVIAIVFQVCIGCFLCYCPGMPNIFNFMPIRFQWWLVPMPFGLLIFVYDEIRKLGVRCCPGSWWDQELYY
T1 sequence (P18434 whole entry partner): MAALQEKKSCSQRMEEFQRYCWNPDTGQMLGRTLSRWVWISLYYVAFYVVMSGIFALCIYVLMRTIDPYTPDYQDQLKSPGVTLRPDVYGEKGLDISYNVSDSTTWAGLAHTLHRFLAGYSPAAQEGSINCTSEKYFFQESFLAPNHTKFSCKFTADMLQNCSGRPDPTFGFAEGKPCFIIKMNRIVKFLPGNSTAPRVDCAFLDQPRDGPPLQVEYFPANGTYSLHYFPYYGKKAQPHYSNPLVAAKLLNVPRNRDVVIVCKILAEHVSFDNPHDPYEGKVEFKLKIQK
Sequence of 5-HT2A (P28223 whole entry): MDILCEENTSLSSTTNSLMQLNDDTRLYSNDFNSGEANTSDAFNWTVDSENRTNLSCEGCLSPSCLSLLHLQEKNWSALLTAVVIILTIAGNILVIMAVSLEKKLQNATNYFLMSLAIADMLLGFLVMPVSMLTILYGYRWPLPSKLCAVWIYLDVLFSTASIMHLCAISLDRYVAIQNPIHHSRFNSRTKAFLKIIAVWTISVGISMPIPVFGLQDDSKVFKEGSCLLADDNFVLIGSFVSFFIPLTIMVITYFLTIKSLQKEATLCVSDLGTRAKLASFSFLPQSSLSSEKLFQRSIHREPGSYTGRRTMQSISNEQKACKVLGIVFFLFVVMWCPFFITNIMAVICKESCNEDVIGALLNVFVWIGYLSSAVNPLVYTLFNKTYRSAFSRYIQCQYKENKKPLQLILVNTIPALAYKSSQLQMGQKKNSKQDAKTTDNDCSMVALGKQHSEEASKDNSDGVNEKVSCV

SMILES | inhibition at 10 µM (5-HT2A) [%] | % inhibitory activity (gastric damage area) [1] [%] | IC50 [2] [µM] | IC50 (5-HT2A) [µM] | inhibition at 10 µM (5-HT2A; single concentration of 10 uM) [%]
CNCc1cn(S(=O)(=O)c2cccc(C(F)(F)F)c2)c(-c2ccccc2F)c1OC [Example 2, hydrochloride] | 39.5 | 91.8 | 0.015 | – | –
CNCc1cn(S(=O)(=O)c2cccc(F)c2)c(-c2ccc(F)cc2F)c1OC.Cl [Example 8, 1-(5-(2,4-difluorophenyl)-1-((3-fluorophenyl)sulfonyl)-4-methoxy-1H-pyrrol-3-yl)-N-methylmethanamine hydrochloride] | – | 92.2 | 0.024 | 0.11 | 102
CNCc1cn(S(=O)(=O)c2cccc(F)c2)c(-c2c(F)cc(F)cc2F)c1OC.Cl [Example 22, 1-(1-((3-fluorophenyl)sulfonyl)-4-methoxy-5-(2,4,6-trifluorophenyl)-1H-pyrrol-3-yl)-N-methylmethanamine hydrochloride] | – | – | 0.014 | 0.033 | 102
